From paper PMC3458734, “Partial thioamide scan on the lipopeptaibiotic trichogin GA IV. Effects on folding and bioactivity” (Beilstein Journal of Organic Chemistry, 2012)

Legend:
[1] = tested on: Staphylococcus aureus ATCC 25923; experiment: Antibacterial activity, disk diffusion Bauer-Kirby method; type: cell-based; details: Müller-Hinton medium pH 7.2-7.4
Method: (§1) The antimicrobial activities were assessed on a large set of Gram-positive and Gram-negative bacterial strains. […] Peptide antibacterial activity was tested against Gram-positive and Gram-negative bacteria by the standardized disk diffusion Bauer-Kirby method using the Müller-Hinton culture medium at pH 7.2-7.4 as recommended by the National Committee for Clinical Laboratory Standards. The antibacterial activity assay was performed in a similar way to that described in reference. The activity of peptides was tested against clinical isolates of bacteria and reference bacterial strains: Staphylococcus aureus American Type Culture Collection strains (ATCC) 25923, Streptococcus pyogenes ATCC 19615, Escherichia coli ATCC 25922, Pseudomonas aeruginosa ATCC 27853, Klebsiella pneumoniae ATCC 13883, Salmonella entereditis 13076, and Proteus mirabilis ATCC 10975. The well-known antibiotics bacitracin and tetracyclin (10 μg/disk) were used as controls.

[2] = tested on: Streptococcus pyogenes ATCC 19615; experiment: as above; type: cell-based; details: Müller-Hinton medium pH 7.2-7.4
Method: as §1

Substance: [Leu^11-OMe] trichogin GA IV
- antimicrobial activity on Staphylococcus aureus [1]: active
- antimicrobial activity on Streptococcus pyrogenes [2]: active
